Data: US5342845A, “Indole derivatives and drugs” (priority 1990, dated 1994)
pIC50: −log10 of the molar value. Structures can show the parent of a compound that is named as a salt.

Columns and labels:
[1] = system: cisplatin-induced vomiting; test: Inhibition of cisplatin-induced vomiting; type: in vivo, beagle dogs; conditions: for a/b (Number of animals which vomited/number of animals used): 5 min before cisplatin 2 mg/kg i.v., 6 h observation; for Vomiting frequency: control 12.2 ± 0.8; for Latency to vomiting: control 118.9 ± 5.6
Method: 2. Inhibition of cisplatin-induced vomiting
The experiment was performed with reference to the method of Cohen et al. (Cohen, M. L., Bloomquist, W., Gidda, J. S. and Lacefie, W: Comparison of the 5-HT3 receptor antagonist properties of ICS-205-930, GR38032F and Zacopride; J. Pharmacol. Exp. Ther. 248, 197-201 (1989)). In this experiment, beagle dogs of either sex, weighing 8-15 kg, were used. […] The test compounds were administered intravenously 5 minutes before the administration of cisplatin.

[2] = system: mice; test: Acute toxicity; type: in vivo, male mice; conditions: 48 hours
Excerpt: Six-week-old male mice were used.

[3] = system: Bezold-Jarisch reflex (serotonin-induced decrease in heart rate); test: Inhibition of serotonin-induced Bezold-Jarisch reflex; type: in vivo, male rats; conditions: Rattus norvegicus, iv, 5 min; i.v. 5 min before 0.1 mg/kg i.v. serotonin; dose inhibiting response by 50%
Excerpt: 1. Inhibition of Bezold-Jarisch reflex
The effect of the test compound on the serotonin-induced decrease in heart rate (Bezold-Jarisch reflex) was investigated in male rats, 6-8 weeks of age, with reference to the method of Richardson, et al. (Richardson, B. P., Engel, G., Donatsch, P. and Stadle, P. A.: Identification of serotonin-receptor subtypes and their specific blockade by a new class of drugs; Nature 316, 126-131 (1985)). With the animal immobilized in dorsal position under urethane anesthesia, 0.1 mg/kg of serotonin was administered intravenously before and 5 min after intravenous administration of the test compound and changes in heart rate were recorded. […] The ED50 value was calculated by the least square method.

[4] = system: scopolamine-induced deficits of learning and memory; test: Ameliorative effect on scopolamine-induced deficits of learning and memory (step through-type passive avoidance); type: in vivo, rats
Method: 3. Ameliorative effect on scopolamine-induced deficits of learning and memory
The experiment was performed in groups of 10 rats. In the intraperitoneal administration study, the test compound was dissolved in physiological saline and administered, and 15 minutes later 0.3 mg/kg of scopolamine was administered intraperitoneally. In the oral administration study, the test compound was suspended in 0.5% methylcellulose (MC) solution and administered and 30 minutes later 0.3 mg/kg of scopolamine was administered intraperitoneally. Thirty minutes after scopolamine administration, training sessions for a step through-type passive avoidance learning task was carried out and 24 hours after this training, trial sessions were started.
The latency to step-through in the trial sessions was determined up to a maximum of 300 seconds and the result was regarded as a learning result. For the test of significant differences from the control group, the Kruscall-Wallis test and the Fisher test were used. The control group received a physiological saline or MC solution.

[5] = molecular target: T1, muscarine M1 receptors (Rattus norvegicus, UniProt P08482); test: Muscarine M1 receptor binding ([^3 H]pirenzepine displacement); conditions: 1 nM [^3 H]pirenzepine, rat brain membranes, pH 7.4, 25° C., 60 min
T1 construct: receptor membrane prepared from the rat brain; from tissue; host or cells: rat brain (receptor membrane)
T1 sequence (P08482 1-460): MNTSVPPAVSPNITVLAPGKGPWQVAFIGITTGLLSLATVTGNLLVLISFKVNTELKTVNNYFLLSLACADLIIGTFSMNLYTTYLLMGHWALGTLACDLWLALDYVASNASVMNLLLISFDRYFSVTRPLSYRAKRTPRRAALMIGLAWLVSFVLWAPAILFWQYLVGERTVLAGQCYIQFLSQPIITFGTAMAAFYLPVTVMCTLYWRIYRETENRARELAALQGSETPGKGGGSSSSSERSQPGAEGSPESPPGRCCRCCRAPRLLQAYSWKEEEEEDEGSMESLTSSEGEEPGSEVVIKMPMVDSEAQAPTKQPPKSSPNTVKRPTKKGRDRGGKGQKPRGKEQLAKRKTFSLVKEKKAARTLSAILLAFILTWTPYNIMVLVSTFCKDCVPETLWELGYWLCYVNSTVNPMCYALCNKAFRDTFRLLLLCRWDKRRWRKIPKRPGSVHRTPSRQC
Method: 4. Effect on muscarine M1 receptors
The muscarine M1 receptor binding assay was carried out according to the method of Watson and Yamamura [Life Sci. 32; 3001-3011 (1983)]. Thus, receptor membrane prepared from the rat brain were incubated with 1 nM [^3 H]pirenzepine in 10 mM Na/K phosphate buffer (pH 7.4) at 25° C. for 60 minutes. As a displacer, 1μM atropine was used.

[6] = system: emesis associated with the administration of anticancer drugs; conditions: background art; cited from earlier work
[7] = oral, 0.03 μg/kg, control 110.1 ± 41.6 (Example 11), 111.9 ± 41.4 (Example 12)
[8] = oral, 0.1 μg/kg, control 110.1 ± 41.6 (Example 11), 111.9 ± 41.4 (Example 12)
[9] = oral, 0.3 μg/kg, control 110.1 ± 41.6 (Example 11), 111.9 ± 41.4 (Example 12)
[10] = oral, 1 μg/kg, control 110.1 ± 41.6 (Example 11), 111.9 ± 41.4 (Example 12)

COc1ccc(-c2c(C(=O)N[C@@H]3CN4CCC3CC4)c3ccccc3n2C)cc1 [Example 2, (S)-(-)-N-(1-Azabicyclo[2,2,2]octo-3-yl)-2-(4-methoxyphenyl)-1-methylindole-3-carboxamide hydrochloride]
a/b (Number of animals which vomited/number of animals used) ([1]; 0.03 mg/kg i.v.): 2/2 | Vomiting frequency ([1]; 0.03 mg/kg i.v.): 6.5 times | Latency to vomiting ([1]; 0.03 mg/kg i.v.): 192.0 min | Number of dead animals/number of animals used ([2]; 30 mg/kg intraperitoneal): 0/4 | Number of dead animals/number of animals used ([2]; 50 mg/kg intraperitoneal): 0/4 | ED50 [3]: 0.3 µg/kg

Cn1c(-c2ccccc2)c(C(=O)N[C@@H]2CN3CCC2CC3)c2ccccc21 [Example 3, (S)-(-)-N(1-Azabicyclo[2,2,2]octo-3-yl)-2-phenyl-1-methylindole-3-carboxamide hydrochloride]
a/b (Number of animals which vomited/number of animals used) ([1]; 0.03 mg/kg i.v.): 2/2 | Vomiting frequency ([1]; 0.03 mg/kg i.v.): 1.0 times | Latency to vomiting ([1]; 0.03 mg/kg i.v.): 215.0 min | Number of dead animals/number of animals used ([2]; 30 mg/kg intraperitoneal): 0/4 | Number of dead animals/number of animals used ([2]; 50 mg/kg intraperitoneal): 0/4

COc1ccc(-c2c(C(=O)NC3CN4CCC3CC4)c3ccccc3n2C)cc1 (stereo not shown) [Example 4, N-(1-Azabicyclo[2,2,21octo-3-yl)-2-(4-methoxyphenyl)-1-methylindole-3-carboxamide hydrochloride]
Number of dead animals/number of animals used ([2]; 30 mg/kg intraperitoneal): 0/4 | Number of dead animals/number of animals used ([2]; 50 mg/kg intraperitoneal): 0/4

Cn1c(-c2ccc(Cl)cc2)c(C(=O)NC2CN3CCC2CC3)c2ccccc21 (stereo not shown) [Example 6, N-(1-Azabicyclo[2,2,2]octo-3-yl)-2-(4-chlorophenyl)-1-methylindole-3-carboxamide hydrochloride]
Number of dead animals/number of animals used ([2]; 50 mg/kg intraperitoneal): 0/4

Cn1c(-c2ccc(Cl)cc2)c(C(=O)N[C@@H]2CN3CCC2CC3)c2ccccc21 [Example 7, (S)-(-)-N-(1-Azabicyclo[2,2,2]octo-3-yl)-2-(4-chlorophenyl)-1-methylindole-3-carboxamide hydrochloride]
a/b (Number of animals which vomited/number of animals used) ([1]; 0.03 mg/kg i.v.): 4/4 | Vomiting frequency ([1]; 0.03 mg/kg i.v.): 2.3 ± 0.6 times | Latency to vomiting ([1]; 0.03 mg/kg i.v.): 206.8 ± 15.7 min | Number of dead animals/number of animals used ([2]; 50 mg/kg intraperitoneal): 0/4 | ED50 [3]: 0.28 µg/kg

COc1ccccc1-c1c(C(=O)NC2CN3CCC2CC3)c2ccccc2n1C (stereo not shown) [Example 8, N-(1-Azabicylo[2,2,2]octo-3-yl)-2-(2-methoxyphenyl)-1-methylindole-3-carboxamide hydrochloride]
ED50 [3]: 0.18 µg/kg

Cn1c(-c2ccccc2Cl)c(C(=O)NC2CN3CCC2CC3)c2ccccc21 (stereo not shown) [Example 10, N-(1-Azabicyclo[2,2,2]octo-3-yl)-2-(2-chlorophenyl)-1-methylindole-3-carboxamide hydrochloride]
ED50 [3]: 0.25 µg/kg

COc1ccccc1-c1c(C(=O)N[C@@H]2CN3CCC2CC3)c2ccccc2n1C [Example 11, (S)-(-)-N-(1-Azabicyclo[2,2,2]octo-3-yl)-2-(2-methoxyphenyl)-1-methylindole-3carboxamide hydrochloride]
a/b (Number of animals which vomited/number of animals used) ([1]; 0.01 mg/kg i.v.): 4/4 | Vomiting frequency ([1]; 0.01 mg/kg i.v.): 6.8 ± 1.9 times | Latency to vomiting ([1]; 0.01 mg/kg i.v.): 149.5 ± 5.4 min | Latency (to step-through) [4, 7]: 214.1 ± 43.8 s | Latency (to step-through) [4, 8]: 246.5 ± 35.7 s | Latency (to step-through) [4, 9]: 246.7 ± 35.6 s | Latency (to step-through) [4, 10]: 162.0 ± 46.1 s | pIC50 [5]: 5.34 | ED50 [3]: 0.14 µg/kg

Cn1c(-c2ccccc2Cl)c(C(=O)N[C@@H]2CN3CCC2CC3)c2ccccc21 [Example 12, (S)-(31)-N-(1-Azabicyclo[2,2,2]octo-3-yl)-2-(2-chlorophenyl)-1-methylindole-3-carboxamide hydrochloride]
a/b (Number of animals which vomited/number of animals used) ([1]; 0.001 mg/kg i.v.): 4/4 | Vomiting frequency ([1]; 0.001 mg/kg i.v.): 7.0 ± 1.7 times | Latency to vomiting ([1]; 0.001 mg/kg i.v.): 140.5 ± 13.6 min | a/b (Number of animals which vomited/number of animals used) ([1]; 0.01 mg/kg i.v.): 4/4 | Vomiting frequency ([1]; 0.01 mg/kg i.v.): 3.8 ± 0.5 times | Latency to vomiting ([1]; 0.01 mg/kg i.v.): 173.8 ± 25.3 min | Latency (to step-through) ([4]; intraperitoneal, 0.1 μg/kg, control 103.8 ± 43.1): 170.5 ± 43.3 s | Latency (to step-through) ([4]; intraperitoneal, 0.3 μg/kg, control 103.8 ± 43.1): 183.0 ± 39.6 s | Latency (to step-through) ([4]; intraperitoneal, 1 μg/kg, control 103.8 ± 43.1): 270.7 ± 29.3 s | Latency (to step-through) ([4]; intraperitoneal, 3 μg/kg, control 103.8 ± 43.1): 256.3 ± 30.4 s | Latency (to step-through) ([4]; intraperitoneal, 10 μg/kg, control 103.8 ± 43.1): 163.8 ± 45.6 s | Latency (to step-through) ([4]; intraperitoneal, 30 μg/kg, control 103.8 ± 43.1): 127.8 ± 46.9 s | Latency (to step-through) [4, 7]: 108.5 ± 42.0 s | Latency (to step-through) [4, 8]: 246.3 ± 35.8 s | Latency (to step-through) [4, 9]: 247.3 ± 35.2 s | Latency (to step-through) [4, 10]: 105.5 ± 42.6 s | Latency (to step-through) ([4]; oral, 3 μg/kg, control 111.9 ± 41.4): 139.2 ± 44.0 s | pIC50 [5]: 5.92 | ED50 [3]: 0.2 µg/kg

Cc1nccn1CC1CCc2c(c3ccccc3n2C)C1=O (stereo not shown) [GR-38032F, ondansetron]
anxiolytic and antipsychotic actions (in words) [6]: exhibit excellent anxiolytic and antipsychotic actions | effect on emesis associated with anticancer drugs (in words) [6]: markedly inhibit the emesis associated with the administration of anticancer drugs

CN1C2CCC1CC(OC(=O)c1c[nH]c3ccccc13)C2 (stereo not shown) [ICS-205-930, reference compound]
a/b (Number of animals which vomited/number of animals used) ([1]; 0.03 mg/kg i.v.): 4/4 | Vomiting frequency ([1]; 0.03 mg/kg i.v.): 9.5 ± 1.3 times | Latency to vomiting ([1]; 0.03 mg/kg i.v.): 139.8 ± 13.2 min | ED50 [3]: 1.79 µg/kg
